Data taken from publication PMC9781827, “Isolation and Identification of Anti-Inflammatory Peptide from Goose Blood Hydrolysate to Ameliorate LPS-Mediated Inflammation and Oxidative Stress in RAW264.7 Macrophages” (Molecules, 2022).
Ends that are not written are not given here.

Experiments:
pepsin [1] = target: T1, pepsin (Sus scrofa, UniProt P00791); experiment: Simulated gastric digestion with pepsin, products analysed by LC–MS/MS; type: in vitro ADME, porcine; conditions: 37 °C
T1 construct: purchased Shanghai Aladdin Biochemical Technology Co., Ltd; host or cells: porcine gastric mucosa
Procedure: (§1) The fractionation of the peak with the highest anti-inflammatory activity obtained from RP-LC was further identified by LC-MS/MS equipped with a reversed phase BEH C18 analytical column (1.7 μm, 2.1 × 100 mm, Waters Inc., Milford, MA, USA). The fraction of peptide with the highest anti-inflammatory activity obtained from RP-LC was further Identified by LC-MS/MS. Eluent A: 0.065% TFA in 2% acetonitrile; Eluent B: 0.050% TFA in 80% acetonitrile. The gradient elution parameters: 0–30 min, 100% eluent A; 30–60 min, 30–80% eluent B; 60–80 min, 100% eluent A. The above flow rates were 0.5 mL/min. The fractions were detected at 280 nm by an ultraviolet detector. The flow entered directly into the MS/MS system (MALDI SYNAPT Q-TOF MS, Waters, Inc. Milford, MA, USA) for multiple reaction measurement. The recording mass range of precursor ions was m/z 50–4000. Nitrogen was used as a collision gas. Capillary voltage was set at 3.5 kV and cone voltage at 20 V. Source block temperature was set at 100 °C and desolvation temperature at 250 °C. Collision energy and detector voltage were 15 and 1600 V, respectively. The desolvation and cone gas flow were 500 and 50 L/h, respectively. The N-terminal fragment ion series (B series) and the C-terminal fragment ion series (Y series) were analysed. The amino acid sequence of the peptide was obtained by comprehensive analysis of B and Y ion series through Mass Lynx V4.1 operating system.
(§2) The stability of GBP in response to pepsin and trypsin in the simulation of GI digestion in vitro was examined based on Xie et al.. First, 2 g of NaCl and 3.2 g of pepsin from porcine gastric mucosa (Purity: 1:3000, CAS: 9001-75-6, Shanghai Aladdin Biochemical Technology Co., Ltd., Shanghai, China) were added to 800 mL of ultrapure water. The pH of the solution was adjusted with 6 mol/L hydrochloric acid to 3.0, and the volume was adjusted with ultrapure water to 1 L (as simulated gastric juice). […]

pepsin [2] = tested on: T2, pepsin; experiment: as above; type: in vitro ADME, porcine; conditions: pig, simulated gastric fluid; simulated gastric juice (pepsin from porcine gastric mucosa, NaCl), pH 3.0, 200 μg/mL peptide, 2 h, 37 °C; LC–MS/MS; read-out: share of IVYPWTQR split into smaller fragments after pepsin treatment
T2 construct: purchased Shanghai Aladdin Biochemical Technology Co., Ltd; host or cells: porcine gastric mucosa
Procedure: as §1, §2

trypsin = target: T3, trypsin (Sus scrofa, UniProt P00761); experiment: Simulated intestinal digestion with trypsin; type: in vitro ADME; conditions: simulated intestinal fluid (trypsin from porcine pancreas, bile salt), pH 7.6, 2 h, 37 °C, after pepsin step; judged by unchanged cytokine levels
T3 construct: purchased Shanghai Aladdin Biochemical Technology Co., Ltd; host or cells: porcine pancreas
Procedure: The stability of GBP in response to pepsin and trypsin in the simulation of GI digestion in vitro was examined based on Xie et al.. First, 2 g of NaCl and 3.2 g of pepsin from porcine gastric mucosa (Purity: 1:3000, CAS: 9001-75-6, Shanghai Aladdin Biochemical Technology Co., Ltd., Shanghai, China) were added to 800 mL of ultrapure water. The pH of the solution was adjusted with 6 mol/L hydrochloric acid to 3.0, and the volume was adjusted with ultrapure water to 1 L (as simulated gastric juice). Then, 0.68 g of potassium dihydrogen phosphate and 7.7 mL sodium hydroxide solution (0.2 mol/L) were dissolved in 70 mL of ultrapure water; 1 g of trypsin from porcine pancreas (Purity: ≥250 units/mg, CAS: […], Shanghai Aladdin Biochemical Technology Co., Ltd., Shanghai, China) and 6 g of bile salt were added and dissolved. The above solution was mixed and supplemented with ultrapure water to 1 L. Finally, the pH of the mixed solution was adjusted to 7.6 with sodium hydroxide solution (0.2 mol/L) (as simulated intestinal fluid). The 200 μg/mL peptide solution was adjusted to a pH of 3.0 with a 1 mol/L HCl solution, and 5 mL of simulated gastric juice was added to the solution and the reaction was carried out for 2 h in 37 °C water bath. Then, the simulated gastric digestion was terminated by being heated at 100 °C for 10 min. […]

T1 sequence (P00791 60-385): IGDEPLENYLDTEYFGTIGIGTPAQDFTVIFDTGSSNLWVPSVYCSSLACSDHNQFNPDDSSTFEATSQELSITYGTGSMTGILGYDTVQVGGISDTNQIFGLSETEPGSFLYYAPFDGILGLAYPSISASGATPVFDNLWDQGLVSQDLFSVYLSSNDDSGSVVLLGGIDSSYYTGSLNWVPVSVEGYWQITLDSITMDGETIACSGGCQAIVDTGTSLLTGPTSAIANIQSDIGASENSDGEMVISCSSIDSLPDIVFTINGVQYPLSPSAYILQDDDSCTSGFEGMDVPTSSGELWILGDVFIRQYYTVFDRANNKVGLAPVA
T3 sequence (P00761 9-231): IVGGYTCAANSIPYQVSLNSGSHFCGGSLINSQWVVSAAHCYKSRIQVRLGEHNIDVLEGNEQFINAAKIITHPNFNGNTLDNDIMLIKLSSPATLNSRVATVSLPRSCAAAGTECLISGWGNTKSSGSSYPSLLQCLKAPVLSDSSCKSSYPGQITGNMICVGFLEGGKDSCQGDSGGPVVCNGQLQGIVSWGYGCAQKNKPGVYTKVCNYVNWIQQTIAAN

| Substance | share of fragment formed from IVYPWTQR after pepsin treatment (pepsin [1]; simulated gastric juice (pepsin), pH 3.0, 200 μg/mL peptide, 2 h, LC–MS/MS) [%] | stability against pepsin (pepsin [1]; simulated gastric digestion, pepsin, pH 3.0, 2 h) | metabolised at 2 h, 200 μg/mL (pepsin [2]) [%] | stability against trypsin (trypsin) |
| --- | --- | --- | --- | --- |
| YPWTQR [fragment of IVYPWTQR after pepsin treatment] | 25.19 |  |  |  |
| IVYPWTQR [IVYPWTQR, IIe-Val-Tyr-Pro-Trp-Thr-Gln-Arg] |  | sensitive to pepsin | ~45.2 | robustly resists trypsin |
